How the values were obtained:
Format in all cases: biochemical
[1] = target: T1, Aβ42 (Homo sapiens, UniProt P05067); assay: ThT-based Aβ42 aggregation kinetics under quiescent (unseeded) conditions; conditions: for ranking of efficacy within set: 2 μM Aβ42; for change of inhibitory activity relative to parent scaffold: structural comparison among RAR/RXR modulators
T1 construct: The recombinant Aβ (M1-42) peptide; made in house; host or cells: E. coli BL21 Gold (DE3)
Description: Solutions of monomeric peptides were prepared by dissolving the lyophilized Aβ42 peptide in 6 M GuHCl. Monomeric forms were purified from potential oligomeric species and salt using a Superdex 75 10/300 GL column (GE Healthcare) at a flowrate of 0.5 mL/min, and were eluted in 20 mM sodium phosphate buffer, pH 8 supplemented with 200 μM EDTA and 0.02% NaN3. The center of the peak was collected and the peptide concentration was determined from the absorbance of the integrated peak area using ε280=1400 l mol^−1 cm^−1. The obtained monomer was diluted with buffer to the desired concentration and supplemented with 20 μM Thioflavin T (ThT) from a 1 mM stock. All samples were prepared in low binding eppendorf tubes on ice using careful pipetting to avoid introduction of air bubbles. Each sample was then pipetted into multiple wells of a 96-well half-area, low-binding, clear bottom and PEG coating plate (Corning 3881), 80 μL per well.
We verified that the addition of 1% DMSO in the reaction mixture has no effect on Aβ42 aggregation.
(§1) Assays were initiated by placing the 96-well plate at 37° C. under quiescent conditions in a plate reader (Fluostar Omega, Fluostar Optima or Fluostar Galaxy, BMGLabtech, Offenburg, Germany). The ThT fluorescence was measured through the bottom of the plate with a 440 nm excitation filter and a 480 nm emission filter. The ThT fluorescence was followed for three repeats of each sample.
The time evolution of the total fibril mass concentration, M(t), is described by the following integrated rate law (30, 32)
(§2) [formula] where the kinetic parameters B±, C±, κ, κ∞ and ? are functions of the two ? combinations of the microscopic rate constants k+k2 and knk2, where kn, k+ and k2 are the primary nucleation, elongation and secondary nucleation rate constants, respectively.
The time evolution of the total fibril mass concentration, M(t), is described by the following integrated rate law
as §2, with “two” for “two ?”, “respectively. Aβ42 alone in 1% DMSO was first modeled to obtain the k+k2 and knk2 combined microscopic rate constants.” for “respectively.”
Target sequence in this assay (P05067 671-713): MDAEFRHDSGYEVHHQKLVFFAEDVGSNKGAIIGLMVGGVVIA
With the introduction of different small molecules, the aggregation process can be inhibited by one or more individual microscopic reactions. Microscopic rate constants k+k2 and knk2 were obtained in the presence of the molecules, and compared to the initial values of Aβ42 alone. This comparison allows one to understand which rate was mainly perturbed, as well as the potency of the compounds (by relative changes of their microscopic rates) with respect to each other.

[2] = target: T1, Aβ42; assay: ThT Aβ42 aggregation kinetics with 10% pre-formed fibril seeds (elongation dominant); conditions: 2 μM Aβ42, 5-fold excess
Description: (§3) Samples were then collected from the wells into low-binding tubes and sonicated for 2 min in a sonicator bath at room temperature. Under the considered conditions (i.e. 4 μM Aβ42), the monomer concentration is negligible at equilibrium (31). The final concentration of fibrils, in monomer equivalents, was considered equal to the initial concentration of monomer. Fibrils were then added to freshly prepared monomer in order to reach either 5% or 10% fibrils final concentration.
as §1, with “sample. […]” for “sample.”
Target sequence in this assay (P05067 672-713 limits assumed): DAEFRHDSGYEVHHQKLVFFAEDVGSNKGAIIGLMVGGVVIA

[3] = target: T1, Aβ42; assay: ThT Aβ42 aggregation kinetics with 1-5% pre-formed fibril seeds (surface-catalyzed secondary nucleation); conditions: 2 μM Aβ42, 1-5% seeds, 0.5-fold excess
Description: For the seeded experiments, preformed fibrils were prepared just prior to the experiment. Kinetic experiments were set up just as above for a […] Aβ42 samples in 20 mM sodium phosphate buffer, pH 8 with 200 μM EDTA, 0.02% NaN3 and 20 μM ThT. The ThT fluorescence was monitored for 3 hours to verify the formation of fibrils.
as §3
as §1, with “sample. […]” for “sample.”
Target sequence in this assay (P05067 672-713 limits assumed): as above
For the seeded experiments, preformed fibrils were prepared just prior to the experiment. […] The ThT fluorescence was monitored for 3 hours to verify the formation of fibrils. […]

SMILES | ranking of efficacy within set [1] | change of inhibitory activity relative to parent scaffold [1] | effect on Aβ42 aggregation of linker variants of bexarotene [1] | also measured
COc1ccc(-c2ccc3cc(C(=O)O)ccc3c2)cc1C12CC3CC(CC(C3)C1)C2 [Adapalene] | most effective molecules within Set C | – | – | –
CC1(C)C(=O)C(C)(C)c2cc(C(=O)Nc3ccc(C(=O)O)cc3)ccc21 [BMS753] | – | – | – | delay / effect on Aβ42 aggregation ([1]; 2 μM Aβ42, 3-fold excess): did not show any effect; effect on aggregation kinetics of Aβ42 ([1]; fold-excesses as high as 5): did not show any effect
NCCCS(=O)(=O)O [tramiprosate] | – | – | – | effect on Aβ42 aggregation ([1]; even when present in 20-fold excess): no effects
CC1(C)CC=C(c2cnc3ccccc3c2)c2cc(C(=O)Nc3ccc(C(=O)O)cc3)ccc21 [BMS195614] | – | substantial increase in primary nucleation inhibitory activity | – | –
CCCCCOc1cc2c(cc1-c1cc(/C=C/C(=O)O)ccc1O)C(C)(C)CCC2(C)C [UVI3003] | most effective molecule within Set B | – | – | effect on aggregation kinetics / elongation with 10% fibril seeds [2]: no effect could be observed; decrease of rate of surface-catalyzed secondary nucleation (k2) [3]: 75%
CC1(C)CCC(C)(C)c2cc(C3(c4ccc(C(=O)O)cc4)OCCO3)ccc21 [SR11237] | – | – | delayed the aggregation of Aβ42 to different extent | –
CC1(C)CCC(C)(C)c2cc(NC(=O)c3ccc(C(=O)O)cc3)ccc21 [Tamibarotene] | – | – | delayed the aggregation of Aβ42 to different extent | –

More lines, main results first:

ranking of efficacy within set [1] | change of inhibitory activity relative to parent scaffold [1] | SMILES | effect on Aβ42 aggregation of linker variants of bexarotene [1] | also measured
– | increase in inhibitory activity | C/C(=C\c1ccc(C(=O)O)cc1)c1ccc2c(c1)C(C)(C)CCC2(C)C [TTNPB] | delayed the aggregation of Aβ42 to different extent | –
– | same effect | CC1(C)CC=C(C#Cc2ccccc2)c2cc(/C=C/c3ccc(C(=O)O)cc3)ccc21 [BMS493] | – | –
most effective molecules within Set C | – | CC1(C)CCC(C)(C)c2cc(C3(c4ccc5cc(C(=O)O)ccc5c4)SCCS3)ccc21 [MM11253] | – | –

Reference: patent US11536729B2, “Method of identifying novel protein aggregation inhibitors based on chemical kinetics” (Cambridge Enterprise Limited, priority 2016, dated 2022)
